# In US11572590B2, “Methods for evaluating tumor cell spheroids using 3D microfluidic cell culture device” (Dana-Farber Cancer Institute, Inc., priority 2017, dated 2023):
# Like-named read-outs stand apart in the source and are kept apart here.
# Tests used:
# Assay in all cases: SelectScreen Kinase Profiling, single point inhibition and IC50 for off-target kinases
# Type in all cases: biochemical
# off-target kinases [1] = target: T1, off-target kinases (Homo sapiens, UniProt P53778); details: MAPK12 (p38 gamma), ZLYTE, ATP Km app
# T1 sequence (P53778 1-367): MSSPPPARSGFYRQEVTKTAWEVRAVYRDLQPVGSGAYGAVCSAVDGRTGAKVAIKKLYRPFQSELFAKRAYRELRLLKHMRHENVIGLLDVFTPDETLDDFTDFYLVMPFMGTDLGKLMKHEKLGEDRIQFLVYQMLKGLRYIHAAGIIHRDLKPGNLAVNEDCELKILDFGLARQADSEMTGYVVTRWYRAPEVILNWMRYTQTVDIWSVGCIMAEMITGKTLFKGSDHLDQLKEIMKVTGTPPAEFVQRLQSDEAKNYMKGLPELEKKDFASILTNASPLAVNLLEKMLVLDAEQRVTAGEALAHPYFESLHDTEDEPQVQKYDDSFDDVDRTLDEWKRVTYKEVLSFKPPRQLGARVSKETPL
# off-target kinases [2] = target: T2, off-target kinases (Homo sapiens, UniProt O14965); details: AURKA (Aurora A), ATP Km app, ZLYTE
# T2 sequence (O14965 1-403): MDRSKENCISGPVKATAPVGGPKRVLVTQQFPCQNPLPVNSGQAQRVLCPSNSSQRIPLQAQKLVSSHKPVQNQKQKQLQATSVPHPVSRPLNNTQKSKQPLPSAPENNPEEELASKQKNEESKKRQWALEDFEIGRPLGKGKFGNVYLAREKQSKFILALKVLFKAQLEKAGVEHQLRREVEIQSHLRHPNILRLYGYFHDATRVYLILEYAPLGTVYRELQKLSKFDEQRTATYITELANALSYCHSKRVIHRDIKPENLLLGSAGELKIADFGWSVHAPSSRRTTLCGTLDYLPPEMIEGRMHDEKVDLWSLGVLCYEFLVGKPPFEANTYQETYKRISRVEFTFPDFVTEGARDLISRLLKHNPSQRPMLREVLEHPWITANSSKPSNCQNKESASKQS
# off-target kinases [3] = target: off-target kinases (Homo sapiens, UniProt O96017); details: CHEK2 (CHK2), ZLYTE, ATP Km app
# Chain of off-target kinases (Homo sapiens, UniProt O96017) (O96017 whole entry): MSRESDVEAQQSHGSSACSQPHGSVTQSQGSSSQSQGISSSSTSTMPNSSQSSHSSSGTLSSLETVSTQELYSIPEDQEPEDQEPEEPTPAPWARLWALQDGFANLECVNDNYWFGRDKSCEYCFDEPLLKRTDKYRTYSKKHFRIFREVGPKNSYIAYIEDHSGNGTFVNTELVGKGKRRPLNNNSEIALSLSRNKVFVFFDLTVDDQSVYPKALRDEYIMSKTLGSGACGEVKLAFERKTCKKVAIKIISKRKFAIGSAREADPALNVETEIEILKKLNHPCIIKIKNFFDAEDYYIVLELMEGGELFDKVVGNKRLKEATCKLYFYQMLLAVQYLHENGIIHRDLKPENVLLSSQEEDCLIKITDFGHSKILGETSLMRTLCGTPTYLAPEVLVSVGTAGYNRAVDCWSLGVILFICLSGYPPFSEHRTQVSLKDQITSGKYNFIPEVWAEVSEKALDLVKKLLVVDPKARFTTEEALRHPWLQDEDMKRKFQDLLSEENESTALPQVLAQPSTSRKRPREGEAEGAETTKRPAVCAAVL
# off-target kinases [4] = target: T3, off-target kinases (Homo sapiens, UniProt Q8IWQ3); details: BRSK2, LanthaScreen Binding
# T3 sequence (Q8IWQ3 1-736): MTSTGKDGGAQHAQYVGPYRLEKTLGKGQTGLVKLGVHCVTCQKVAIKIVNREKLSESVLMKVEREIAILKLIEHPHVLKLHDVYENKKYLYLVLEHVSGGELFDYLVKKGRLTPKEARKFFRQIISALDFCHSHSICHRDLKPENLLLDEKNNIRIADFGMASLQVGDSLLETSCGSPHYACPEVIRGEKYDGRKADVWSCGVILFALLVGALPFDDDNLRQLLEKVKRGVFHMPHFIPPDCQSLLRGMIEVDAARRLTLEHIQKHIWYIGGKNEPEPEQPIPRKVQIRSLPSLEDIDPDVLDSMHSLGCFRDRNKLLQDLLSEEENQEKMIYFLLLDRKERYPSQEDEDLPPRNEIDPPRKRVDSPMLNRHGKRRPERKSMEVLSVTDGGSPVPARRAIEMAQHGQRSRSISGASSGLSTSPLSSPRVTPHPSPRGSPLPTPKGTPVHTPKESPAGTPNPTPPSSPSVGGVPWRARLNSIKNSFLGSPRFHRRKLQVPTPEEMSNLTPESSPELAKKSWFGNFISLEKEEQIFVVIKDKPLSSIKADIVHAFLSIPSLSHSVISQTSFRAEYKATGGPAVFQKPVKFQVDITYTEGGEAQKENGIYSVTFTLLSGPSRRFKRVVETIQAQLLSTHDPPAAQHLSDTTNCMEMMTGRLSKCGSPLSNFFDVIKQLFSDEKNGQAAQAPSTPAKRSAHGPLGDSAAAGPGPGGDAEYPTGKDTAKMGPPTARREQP
# off-target kinases [5] = target: off-target kinases (Homo sapiens, UniProt Q9HAZ1); details: CLK4, LanthaScreen Binding
# Chain of off-target kinases (Homo sapiens, UniProt Q9HAZ1) (Q9HAZ1 whole entry): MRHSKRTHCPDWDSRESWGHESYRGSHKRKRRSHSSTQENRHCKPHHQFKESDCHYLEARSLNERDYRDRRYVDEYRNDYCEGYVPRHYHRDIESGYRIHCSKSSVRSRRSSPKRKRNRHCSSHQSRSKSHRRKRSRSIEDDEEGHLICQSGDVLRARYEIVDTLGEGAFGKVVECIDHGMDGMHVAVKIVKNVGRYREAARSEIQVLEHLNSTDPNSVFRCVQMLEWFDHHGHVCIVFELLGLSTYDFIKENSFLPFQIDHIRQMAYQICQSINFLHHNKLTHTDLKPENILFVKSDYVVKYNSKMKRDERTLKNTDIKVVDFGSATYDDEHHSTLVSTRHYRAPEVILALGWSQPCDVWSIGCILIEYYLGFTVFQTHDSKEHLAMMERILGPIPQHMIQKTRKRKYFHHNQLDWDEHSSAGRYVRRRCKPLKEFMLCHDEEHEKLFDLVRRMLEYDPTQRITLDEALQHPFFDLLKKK
smiles,measurement,setting,value
"N#Cc1cc(-c2ncnc(Nc3ccc(N4CCN(C5COC5)CC4)cc3)n2)ccc1OC1CCOCC1 [Compound 1, 5-(4-((4-(4-(oxetan-3-yl)piperazin-1-yl)phenyl)amino)-1,3,5-triazin-2-yl)-2-((tetrahydro-2H-pyran-4-yl)oxy)benzonitrile]",inhibition,off-target kinases [1]; read-out: % Inhibition 1,4%
same,inhibition,off-target kinases [1]; read-out: % Inhibition 2,3%
same,inhibition,off-target kinases [1]; read-out: % Inhibition Avg,3%
same,inhibition,off-target kinases [2]; read-out: % Inhibition 1,91%
same,inhibition,off-target kinases [2]; read-out: % Inhibition 2,86%
same,inhibition,off-target kinases [2]; read-out: % Inhibition Avg,89%
same,inhibition,off-target kinases [3]; read-out: % Inhibition 1,27%
same,inhibition,off-target kinases [3]; read-out: % Inhibition 2,27%
same,inhibition,off-target kinases [3]; read-out: % Inhibition Avg,27%
same,inhibition,off-target kinases [4]; read-out: % Inhibition 1,16%
same,inhibition,off-target kinases [4]; read-out: % Inhibition 2,17%
same,inhibition,off-target kinases [4]; read-out: % Inhibition Avg,17%
same,inhibition,off-target kinases [5]; read-out: % Inhibition 1,87%
same,inhibition,off-target kinases [5]; read-out: % Inhibition 2,89%
same,inhibition,off-target kinases [5]; read-out: % Inhibition Avg,88%
